What was measured:
[1] = Activity coefficients (γi) of ITN, Equation (4); format: physicochemical
Excerpt: Finally, the x^idl values for ITN were derived from Equation (2). Equation (4) was used to derive the γi values for ITN in numerous {DMSO (1) + H2O (2)} mixes including neat DMSO and H2O [56, 58]:(4) γi=x^idl/xe

[2] = parameters: method as in PMID 36431759; details: cited from earlier work

CC1=C(/C=C/C(C)=C/C=C/C(C)=C\C(=O)O)C(C)(C)CCC1 [ITN, isotretinoin]
γi activity coefficient ([1]; DMSO mass fraction m = 0.0, T = 298.2 K): 1,366,467 | γi activity coefficient ([1]; DMSO mass fraction m = 0.0, T = 303.2 K): 972,627.0 | γi activity coefficient ([1]; DMSO mass fraction m = 0.0, T = 308.2 K): 611,320.0 | γi activity coefficient ([1]; DMSO mass fraction m = 0.0, T = 313.2 K): 441,076.0 | γi activity coefficient ([1]; DMSO mass fraction m = 0.0, T = 318.2 K): 326,128.0 | γi activity coefficient ([1]; DMSO mass fraction m = 0.1, T = 298.2 K): 384,000.0 | γi activity coefficient ([1]; DMSO mass fraction m = 0.1, T = 303.2 K): 278,000.0 | γi activity coefficient ([1]; DMSO mass fraction m = 0.1, T = 308.2 K): 187,000.0 | γi activity coefficient ([1]; DMSO mass fraction m = 0.1, T = 313.2 K): 136,000.0 | γi activity coefficient ([1]; DMSO mass fraction m = 0.1, T = 318.2 K): 106,000.0 | γi activity coefficient ([1]; DMSO mass fraction m = 0.2, T = 298.2 K): 111,979.0 | γi activity coefficient ([1]; DMSO mass fraction m = 0.2, T = 303.2 K): 83,952.80 | γi activity coefficient ([1]; DMSO mass fraction m = 0.2, T = 308.2 K): 58,249.00 | γi activity coefficient ([1]; DMSO mass fraction m = 0.2, T = 313.2 K): 43,099.10 | γi activity coefficient ([1]; DMSO mass fraction m = 0.2, T = 318.2 K): 34,943.20 | γi activity coefficient ([1]; DMSO mass fraction m = 0.3, T = 298.2 K): 31,441.80 | γi activity coefficient ([1]; DMSO mass fraction m = 0.3, T = 303.2 K): 24,298.30 | γi activity coefficient ([1]; DMSO mass fraction m = 0.3, T = 308.2 K): 17,811.50 | γi activity coefficient ([1]; DMSO mass fraction m = 0.3, T = 313.2 K): 13,802.30 | γi activity coefficient ([1]; DMSO mass fraction m = 0.3, T = 318.2 K): 11,402.70 | γi activity coefficient ([1]; DMSO mass fraction m = 0.4, T = 298.2 K): 9161.740 | γi activity coefficient ([1]; DMSO mass fraction m = 0.4, T = 303.2 K): 7310.360 | γi activity coefficient ([1]; DMSO mass fraction m = 0.4, T = 308.2 K): 5568.540 | γi activity coefficient ([1]; DMSO mass fraction m = 0.4, T = 313.2 K): 4372.740 | γi activity coefficient ([1]; DMSO mass fraction m = 0.4, T = 318.2 K): 3713.1570 | γi activity coefficient ([1]; DMSO mass fraction m = 0.5, T = 298.2 K): 2602.340 | γi activity coefficient ([1]; DMSO mass fraction m = 0.5, T = 303.2 K): 2166.250 | γi activity coefficient ([1]; DMSO mass fraction m = 0.5, T = 308.2 K): 1703.980 | γi activity coefficient ([1]; DMSO mass fraction m = 0.5, T = 313.2 K): 1429.250 | γi activity coefficient ([1]; DMSO mass fraction m = 0.5, T = 318.2 K): 1233.060 | γi activity coefficient ([1]; DMSO mass fraction m = 0.6, T = 298.2 K): 751.8650 | γi activity coefficient ([1]; DMSO mass fraction m = 0.6, T = 303.2 K): 644.3650 | γi activity coefficient ([1]; DMSO mass fraction m = 0.6, T = 308.2 K): 534.7140 | γi activity coefficient ([1]; DMSO mass fraction m = 0.6, T = 313.2 K): 438.6560 | γi activity coefficient ([1]; DMSO mass fraction m = 0.6, T = 318.2 K): 399.5110 | γi activity coefficient ([1]; DMSO mass fraction m = 0.7, T = 298.2 K): 211.8050 | γi activity coefficient ([1]; DMSO mass fraction m = 0.7, T = 303.2 K): 189.9250 | γi activity coefficient ([1]; DMSO mass fraction m = 0.7, T = 308.2 K): 164.4500 | γi activity coefficient ([1]; DMSO mass fraction m = 0.7, T = 313.2 K): 146.1890 | γi activity coefficient ([1]; DMSO mass fraction m = 0.7, T = 318.2 K): 133.4190 | γi activity coefficient ([1]; DMSO mass fraction m = 0.8, T = 298.2 K): 61.49 | γi activity coefficient ([1]; DMSO mass fraction m = 0.8, T = 303.2 K): 56.72 | γi activity coefficient ([1]; DMSO mass fraction m = 0.8, T = 308.2 K): 51.11 | γi activity coefficient ([1]; DMSO mass fraction m = 0.8, T = 313.2 K): 46.46 | γi activity coefficient ([1]; DMSO mass fraction m = 0.8, T = 318.2 K): 42.45 | γi activity coefficient ([1]; DMSO mass fraction m = 0.9, T = 298.2 K): 17.6 | γi activity coefficient ([1]; DMSO mass fraction m = 0.9, T = 303.2 K): 16.68 | γi activity coefficient ([1]; DMSO mass fraction m = 0.9, T = 308.2 K): 16.02 | γi activity coefficient ([1]; DMSO mass fraction m = 0.9, T = 313.2 K): 14.84 | γi activity coefficient ([1]; DMSO mass fraction m = 0.9, T = 318.2 K): 14.42 | γi activity coefficient ([1]; DMSO mass fraction m = 1.0, T = 298.2 K): 5.057 | γi activity coefficient ([1]; DMSO mass fraction m = 1.0, T = 303.2 K): 4.988 | γi activity coefficient ([1]; DMSO mass fraction m = 1.0, T = 308.2 K): 4.919 | γi activity coefficient ([1]; DMSO mass fraction m = 1.0, T = 313.2 K): 4.829 | γi activity coefficient ([1]; DMSO mass fraction m = 1.0, T = 318.2 K): 4.791 | total HSP (δt) [2]: 19.30 MPa^1/2
